Experimental findings from patent US9005670B2, “Use of histone acetyltransferase inhibitors as novel anti-cancer therapies” (The Johns Hopkins University, priority 2010, dated 2015) are described below.

In data set [1] the target is T1, p300 HAT (Homo sapiens, UniProt Q09472, DEL1529-1560/M1652G).
T1 construct: A variant of the HAT domain of p300 (residues 1287 to 1652) was expressed as a fusion; a C-terminal peptide corresponding to residues 1653-1666 of p300; made in house; host or cells: E. coli BL21(RIL)-DE3; C-terminal peptide by solid phase synthesis
T1 sequence (Q09472 with tags, fused parts or gaps DEL1529-1560/M1652G limits assumed): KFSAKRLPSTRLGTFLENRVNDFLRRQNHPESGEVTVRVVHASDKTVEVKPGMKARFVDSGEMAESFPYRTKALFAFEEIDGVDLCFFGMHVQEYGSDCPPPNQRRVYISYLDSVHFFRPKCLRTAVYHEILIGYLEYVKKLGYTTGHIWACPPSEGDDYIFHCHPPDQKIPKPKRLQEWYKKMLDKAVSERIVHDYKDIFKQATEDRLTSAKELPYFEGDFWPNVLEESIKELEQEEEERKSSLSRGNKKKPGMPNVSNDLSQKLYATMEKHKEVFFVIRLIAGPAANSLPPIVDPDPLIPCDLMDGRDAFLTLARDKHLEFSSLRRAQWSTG
Description: direct radioactive p300 HAT assay (14C-acetyl-CoA transfer to H4-15). It is filed as biochemical. How it is done:
In this assay, production of ^14C-labeled Ac-H4-15 is monitored electrophoretically. Reactions were performed in 20 mM HEPES, pH 7.9, and contained 5 mM DTT, 80 μM EDTA, 40 μg/mL BSA, 100 μM H4-15, and 5 nM p300. […] Reactions were incubated at 30° C. for 10 minutes, initiated with addition of a 1:1 mixture of 12 C-acetyl-CoA and 14 C-acetyl-CoA to a final concentration of 20 μM, and allowed to run for 10 min at 30° C. Reactions are then quenched with addition of 14% SDS (w/v). Turnover was kept below 10%. All compounds were screened in duplicate. Samples were then loaded onto a 16% Tris-Tricine gel along with a BSA standard and run at 140 V for 90 minutes. Gels were washed and dried, and exposed in a PhosphorImager cassette for ˜2 days. Bands corresponding to Ac-H4-15 were then quantified using ImageQuant.
Reactions were performed in 20 mM HEPES, pH 7.9, and contained 5 mM DTT, 80 μM EDTA, 40 μg/mL BSA, 100 μM […], and 5 nM p300. Putative inhibitors were added over a range of concentrations, with DMSO concentration kept constant (<5%). Reactions were incubated at 30° C. for 10 minutes, then initiated with addition of a 1:1 mixture of ^12C-acetyl-CoA and ^14C-acetyl-CoA to 20 μM. After […] at 30° C., reactions were quenched with 14% SDS (w/v). All concentrations were screened in duplicate. Gels were run, washed, dried, and exposed to a PhosphorImager plate as described above, and production of Ac-H4-15 quantified. Data were fit to the following equation to obtain IC50s. […]

In data set [2] the target is T1, p300 HAT. Description: coupled spectrophotometric p300 HAT assay. The following applies: for % inhibition in initial screen: compounds at 100 μM. It is filed as biochemical. How it is done: After completing the computational docking screen, the top 194 inhibitors were tested in a convenient spectrophotometric assay as described in Kim et al., Anal. Biochem. 280, 308 (2000). In the coupled spectrophotometric assay, the acetyltransferase reaction product CoASH becomes a substrate for alpha-ketoglutarate dehydrogenase, which converts NAD to NADH, resulting in an increase of UV absorbance at 340 nm. Screening conditions for these p300 HAT assays included substrate concentrations of 200 μM histone H4-15 peptide and 50 μM acetyl-CoA, and potential small molecule inhibitors tested at 100 μM. […] To distinguish inhibitory effects related to blockade of coupling enzyme rather than p300, assays were repeated using increased (2-fold) alpha-ketoglutarate dehydrogenase. […] The remaining compounds were then assessed in a protein aggregation-related inhibition assay as described in Feng et al., Nat. Chem. Biol. 1, 146 (2005). […] In this radioactive p300 HAT assay, ^14C transfer from ^14C-acetyl-CoA into peptide substrate is directly measured using Tris-Tricine SDSPAGE and phosphorimage analysis.
The top 194 p300 HAT inhibitor candidates identified by VLS were screened using a coupled spectrophotometric assay. In this assay, CoASH produced by the p300 reaction is used by α-ketoglutarate dehydrogenase (α-KGDH) to produce NADH, which can be monitored spectrophotometrically at 340 nm. Reactions were performed at 30° C. in […] HEPES, pH 7.9, and contained 200 μM H4-15, 200 μM TPP, 5 mM MgCl 2, 1 mM DTT, 50 μg/mL BSA, 200 μM NAD, 2.4 mM α-ketoglutarate, 200 μM acetyl-CoA, 0.1 units α-KGDH, and 100 nM p300. DMSO was kept at a constant 3.3%, and candidate compounds were screened at 100 μM. Reaction mixtures were incubated at 30° C. for 10 min prior to initiation. Reactions were initiated with addition of H4-15 and followed over the linear portion of the progress curve, which provides the initial velocity via linear regression. Percent inhibition was determined by comparison with velocity without candidate added. […] To ensure that compounds were not inhibiting α-KGDH instead of p300, compounds were assayed with 0.2 units of α-KGDH, two times the amount used in the initial screen. To ensure that compounds were not inhibiting through nonspecific aggregation, compounds were assayed in the presence of 0.01% Triton X-100.

Molecules are shown by their SMILES.

As a reminder, the melting point is the temperature, or range, at which the solid turns liquid. Turning to `CC1=NN(c2ccc(C(=O)O)cc2)C(=O)/C1=C\c1ccc(-c2ccccn2)o1` [Compound 6p, 4-(4,5-dihydro-3-methyl-5-oxy-4-((5-(pyridin-2-yl)furan-2-yl)methylene)pyrazol-1-yl)benzoic acid], the melting point fell in the range of 294 to 296 °C. Further, at p300 HAT [1], the “p300 HAT inhibition, result in words (analogs compared with C646)” value is given as “eliminated p300 inhibitory action”.
Regarding `CC1=NN(c2ccc(C(N)=O)c(Cl)c2)C(=O)/C1=C\c1ccc(-c2cc(C)c(C)cc2[N+](=O)[O-])o1` [Compound 6b, 4-(4,5-dihydro-3-methyl-4-((5-(4,5-dimethyl-2-nitrophenyl)furan-2-yl)methylene)-5-oxopyrazol-1-yl)-2-chloro-benzamide], the melting point lay within 267 to 269 °C.
`COc1cccc(NC(=O)C(=O)NCCc2ccc(OC)c(OC)c2)c1` [Compound 5574003]: the “% inhibition in initial screen” value at p300 HAT [2] turned out to be 0.0%.
In the case of `C=CCn1c(SCC(=O)O)nc2sc3c(c2c1=O)CCCC3` [Compound 5915918], at p300 HAT [2], the “% inhibition in initial screen” value stood at 0.0%.
Take `CC1=NN(c2ccc(C(N)=O)cc2)C(=O)C1=Cc1ccc(-c2cc(C)c(C)cc2[N+](=O)[O-])o1` [Compound 6a, 4-(4,5-dihydro-3-methyl-4-((5-(4,5-dimethyl-2-nitrophenyl)furan-2-yl)methylene)-5-oxopyrazol-1-yl)benzamide]: the melting point fell in the range of 273 to 275 °C. The “p300 HAT inhibition, result in words (analogs compared with C646)” value on p300 HAT [1] is given as “well tolerated”.
Consider `CC1=NN(CCC(=O)O)C(=O)C1=Cc1ccc(-c2cc(C)c(C)cc2[N+](=O)[O-])o1` [Compound 6k, 3-(4,5-dihydro-3-methyl-4-((5-(4,5-dimethyl-2-nitrophenyl)furan-2-yl)methylene)-5-oxopyrazol-1-yl)propanoic acid], for which the melting point was in the range of 189 to 190 °C. The “p300 HAT inhibition, result in words (analogs compared with C646)” value at p300 HAT [1] is “cannot successfully replace the benzoate ring of C646 and still retain p300 inhibitory potency”.
`O=C(O)C1CCCN(S(=O)(=O)c2cccs2)C1` (centres unmarked) [Compound 7195131]: on p300 HAT [2], the “% inhibition in initial screen” value was 0.0%.
Take `COc1cccc(CNC(=O)C(=O)Nc2ccc(C(C)C)cc2)c1` [Compound 7076620]: the “% inhibition in initial screen” value at p300 HAT [2] is on record as 0.0%.
In the case of `NC(=O)c1ccccc1NC(=O)CCC(=O)O` [Compound 5317891], on p300 HAT [2], the “% inhibition in initial screen” value was 0.0%.
For `O=C(O)c1ccc(Br)c(S(=O)(=O)Nc2ccc(NC(=O)c3ccccc3)cc2)c1` [Compound 5913665], the “% inhibition in initial screen” value at p300 HAT [2] was 0.0%.
The same measure, in the same setting: next, `O=C(O)CCSCC(=O)c1ccc(NS(=O)(=O)c2ccccc2)cc1` [Compound 7112743]: 0.0%; `COc1ccc(CCNC(=O)c2ccccc2[N+](=O)[O-])cc1OC` [Compound 5693758]: 0.0%.
Consider `Cc1cc(-c2ccc(C(=O)c3c(C)nn(-c4ccc(C(=O)O)cc4)c3O)o2)c([N+](=O)[O-])cc1C` [Compound 6q], for which, at p300 HAT [1] (range of concentrations), the “weakening of p300 inhibitory potency compared with C646 (relative IC50)” value is 6 fold.
Regarding `Cc1ccc(C(=O)Nc2cccc([N+](=O)[O-])c2)cc1S(=O)(=O)Nc1cccc(C(=O)O)c1` [Compound 5913514], the “% inhibition in initial screen” value at p300 HAT [2] is given as 0.0%.
`COC(=O)c1cc(C)c(C)cc1-c1ccc(/C=C2\C(=O)N(c3ccc(C(=O)O)cc3)N=C2C)o1` [Compound 6m, 4-(4,5-dihydro-4-((5-(4,5-dimethyl-2-methylbenzoate)furan-2-yl)methylene)-3-methyl-5-oxapyrazol-1-yl)benzoic acid] had a melting point of 254 to 256 °C. Also, on p300 HAT [1], the “p300 HAT inhibition, result in words (analogs compared with C646)” value is reported as “well tolerated”.
On to `O=C(O)c1cccc(NC(=O)c2cc(S(=O)(=O)Nc3cccc([N+](=O)[O-])c3)ccc2Cl)c1` [Compound 5915900], for which the “% inhibition in initial screen” value at p300 HAT [2] came to 0.0%.
With `COC(=O)c1cccc(N2N=C(C)/C(=C/c3ccc(-c4cc(C)c(C)cc4[N+](=O)[O-])o3)C2=O)c1` [Compound 6i, Methyl 3-(4,5-dihydro-3-methyl-4-((5-(4,5-dimethyl-2-nitrophenyl)furan-2-yl)methylene)-5-oxopyrazol-1-yl)benzoate], the melting point was 205 to 207 °C. The “p300 HAT inhibition, result in words (analogs compared with C646)” value at p300 HAT [1] is listed as “well tolerated”.
For the molecule `Cc1nc(=O)c(-c2ccccc2)c(C)n1-c1ccccc1C(=O)O` [Compound 7261568], the “% inhibition in initial screen” value at p300 HAT [2] was found to be 0.0%.
The % inhibition is how much of the control response was suppressed. As to `O=C(O)CCC(=O)Nc1ccc(-c2nc3cc(Cl)ccc3o2)cc1` [Compound 6786461], on p300 HAT [2] (0.2 units α-KGDH (two times)), the “% inhibition with 2x coupling enz” value was 100.0%. In addition, the “% inhibition with .01% Triton X-100” value at p300 HAT [2] (aggregation control, 0.01% Triton X-100) is on record as 58.2%. For the same molecule, the “% inhibition in initial screen” value at p300 HAT [2] was 66.6%. The “% inhibition at 25 uM in radioactive assay” value at p300 HAT [1] (25 uM) was 0.0%.
Regarding `CC(=O)c1ccc(NS(=O)(=O)c2cccc(C(=O)Nc3cccc(C(=O)O)c3)c2)cc1` [Compound 5917216], on p300 HAT [2], the “% inhibition in initial screen” value came to 38.6%.
For `O=C(O)CCSc1nc2ccccc2c(=O)[nH]1` [Compound 5485989], the “% inhibition in initial screen” value on p300 HAT [2] worked out at 0.0%.
On the same count and under the same terms, next, `COc1ccc(N2C(=O)CC(SCC(=O)O)C2=O)cc1` (centres unmarked) [Compound 5109125]: 0.0%; `Cc1cc(C)c(S(=O)(=O)N2CCCC(C(=O)O)C2)c(C)c1` (centres unmarked) [Compound 7188864]: 0.0%.
Consider `COc1ccc(C(CC(=O)O)c2ccc(OC)c(OC)c2)cc1OC` [Compound 6971425], for which the “% inhibition in initial screen” value on p300 HAT [2] stood at 0.0%.
`CC1=NN(c2ccc(S(=O)(=O)O)cc2)C(=O)C1=Cc1ccc(-c2cc(C)c(C)cc2[N+](=O)[O-])o1` [Compound 6f]: on p300 HAT [1], the “p300 HAT inhibition, result in words (analogs compared with C646)” value is “well tolerated”.
On to `CC1=NN(c2ccc(S(N)(=O)=O)cc2)C(=O)/C1=C\c1ccc(-c2cc(C)c(C)cc2[N+](=O)[O-])o1` [Compound 6g], for which the melting point lay within 152 to 154 °C.
Take `COc1ccc(S(=O)(=O)N2CCCC(C(=O)O)C2)cc1` (centres unmarked) [Compound 7185124]: the “% inhibition in initial screen” value at p300 HAT [2] is 0.0%.
`CCOC(=O)c1cc(C)c(C)cc1-c1ccc(/C=C2\C(=O)N(c3ccc(C(=O)O)cc3)N=C2C)o1` [Compound 6n, 4-(4,5-dihydro-4-((5-(4,5-dimethyl-2-ethylbenzoate)furan-2-yl)methylene)-3-methyl-5-oxopyrazol-1-yl)benzoic acid]: the melting point fell in the range of 241 to 243 °C.
For the molecule `O=C(CSC1CC(=O)N(c2ccc(C(=O)O)cc2)C1=O)Nc1ccc(F)cc1` (centres unmarked) [Compound 5310308], the “% inhibition in initial screen” value on p300 HAT [2] came to 0.0%.
Take `Cc1nc(SCc2ccccc2)[nH]c(=O)c1CC(=O)O` [Compound 6658754]: at p300 HAT [2], the “% inhibition in initial screen” value came out at 0.0%.
